Measured values reported in patent US8389562B2, “Polymorphic forms of a 3-pyrrole substituted 2-indolinone” (Medichem, S.A., priority 2007, dated 2013).

Key:
[1] = European Public Assessment Report provided for SUTENT; cited from earlier work
[2] = solubility profile of sunitinib base as observed by applicants; assay type: physicochemical; conditions: sunitinib base obtained in the prior art (Form III); qualitative observation
From the text: In this regard, the low solubility of sunitinib base Form III would involve the use of large amounts of suitable solvents or mixture of solvents and/or the use of particular conditions aimed to improve the solubility of sunitinib base Form III and/or long reaction times for processes using sunitinib, which may represent an important drawback, especially for processes on an industrial scale.

solubility profile [2]	SMILES	solubility class according to the biopharmaceutical classification [1]
	CCN(CC)CCNC(=O)c1c(C)[nH]c(/C=C2\C(=O)Nc3ccc(F)cc32)c1C [sunitinib, N-[2-(diethylamino)ethyl]-5-[(Z)-(5-fluoro-1,2-dihydro-2-oxo-3H-indol-3-ylidine)methyl]-2,4-dimethyl-1H-pyrrole-3-carboxamide]	low solubility compound
low solubility profile	CCN(CC)CCNC(=O)c1c(C)[nH]c(/C=C2\C(=O)Nc3ccc(F)cc32)c1C [sunitinib base Form III, N-[2-(diethylamino)ethyl]-5-[(Z)-(5-fluoro-1,2-dihydro-2-oxo-3H-indol-3-ylidine)methyl]-2,4-dimethyl-1H-pyrrole-3-carboxamide]	
